Reference: PMC9313321 (Biomedicines, 2022)
Several values for one entry are separate records, joined by “and”; a condition that tells them apart may be missing. Identical values can stand only once. Entries after “also recorded” stand apart in the source; their conditions may differ.

Tests used:
[1] = molecular target: T1, Aβ42 fibrils (Homo sapiens, UniProt P05067); assay: TEM assay of Aβ42 fibrils in the absence of Cu(II); format: biochemical; conditions: 48 h 37 °C; for Aβ42 fibril width / Reduction of fibril width vs Aβ42 alone: TEM; for Aβ42 fibril width: CAβ42 = CL = 50 µM, Aβ42 alone 4.9 ± 0.2 nm; for Reduction of fibril width vs Aβ42 alone: 50 µM
T1 construct: Beta-amyloid protein, fragment 1-42; purchased Sigma-Aldrich
Protocol: (§1) To perform the TEM assays, commercial Aβ42 purchased from Sigma-Aldrich was pre-treated with pure HFIP, a beta-sheet disruptor, to obtain homogeneous and monomeric Aβ42 [54]. Then, 222 µL of HFIP was added to 1 mg of Aβ42, after which the mixture was vortexed and aliquoted into Eppendorfs. The Eppendorfs were placed in a SpeedVac at 45 °C for 30 min until all HFIP was evaporated. Pre-treated Aβ42 was stored at −20 °C until use. To start the amyloid incubations, pre-treated Aβ42 was equilibrated at room temperature for 30 min. A solution of 5 mM was obtained by dissolution in DMSO and sonication for 5 min. Subsequently, 10 mM HCl was added to obtain a working Aβ42 solution of 200 µM. Stock solutions of Cu(II) and RIV–BIM compounds (4a–d, 5a,b and 5d) at 200 µM were prepared on the same day and working solutions of Aβ42, Aβ42 + Cu(II), Aβ42 + RIV–BIM and Aβ42 + Cu(II) + RIV–BIM (CAβ42 = CCu = CL = 50 µM) were prepared by diluting stock solutions in 10 mM HCl. Working solutions were incubated for 48 h at 37 °C before being analyzed by TEM. Samples were negatively stained with uranyl acetate 2% (w/v) and analyzed at 100 kv with a JEOL JEM 1400 Plus transmission electron microscope. Fibrils of Aβ42 alone were compared with Aβ42 + RIV–BIM fibrils, and fibrils of Aβ42 + Cu(II) were compared with Aβ42 + Cu(II) + RIV–BIM in order to evaluate the inhibition of the amyloid aggregation, and the widths and lengths of fibrils were measured for each sample. The ImageJ program was used to measure the fibrils (n = 200).
To perform the Aβ42 aggregation assays by TEM, fibrils were incubated using a fluorescence procedure previously described.
Amyloid fibrils remained disaggregated under the effect of the RIV–BIM compounds after 48 h of incubation. […] For each of the performed assays, fibril width was measured, and the results are graphed in Figure 5. Aβ42 fibril width in the absence of Cu(II) (Figure 5a) was 4.9 ± 0.2 nm, and it was modified in the presence of all RIV–BIM compounds: compound 4d was the only one that widened amyloid fibrils (6.7 ± 0.3 nm), while the rest of the compounds narrowed them (3.3–4.5 nm).

[2] = Radical scavenging activity (DPPH method); conditions: read-out: Antioxid. EC50, 30 min, absorbance 517 nm
Protocol: To determine the radical scavenging activity (antioxidant activity) of the novel RIV–BIM hybrids, the DPPH method was performed as previously described in the literature [49]. Working solutions of 20 mg of the ligands were prepared daily in 10 mL of MeOH (with a 10% of DMSO). A working solution of 2 mg DPPH in 100 mL MeOH was prepared daily, and its absorbance was checked to be between 0.75 and 1.00 (a.u.). […] Each one of the calibrate points was kept for 30 min under darkness to allow the ligands to exert their antioxidant effects. After 30 min, an auto-zero was performed with MeOH in both sample and reference cells, using a UV–Vis spectrophotometer. […] The antioxidant activity (%AA) for each point was calculated using the following equation: %AA=ADPPH−Aligand/ADPPH×100
The radical scavenging activity of the RIV–BIM compounds was determined by a spectrophotometric method involving the 2,2-diphenyl-1-picrylhydrazyl (DPPH) free radical [35, 64].

[3] = molecular target: T2, Aβ42 + Cu(II) fibrils (Homo sapiens, UniProt P05067); assay: TEM assay of Aβ42 fibrils in the presence of Cu(II); format: biochemical; conditions: 48 h 37 °C; for Aβ42 fibril width: TEM, CAβ42 = CCu = CL = 50 µM, Aβ42 + Cu(II) 6.8 ± 0.3 nm
T2 construct: Beta-amyloid protein, fragment 1-42; purchased Sigma-Aldrich
Protocol: as §1
When fibrils were incubated in the presence of Cu(II) for 48 h (Figure 6), stronger amyloid elongated aggregation was evidenced. In fact, incubation with Cu(II) in the absence of RIV–BIM compounds (Figure 5a) presented higher aggregation than that corresponding to Aβ42 alone (Figure 5a). Based on the TEM images contained in Figure 6, compounds belonging to the linear series of hybrids (4a–4d) seem to exert minor effects on Cu(II)-induced Aβ42 aggregation according to the previous fluorescence data.
Fibril width for Aβ42 + Cu(II) + RIV–BIM incubations was also measured (Figure 5b). When Aβ42 was incubated with Cu(II) ((6.8 ± 0.3) nm), the amyloid fibrils suffered a width increase of 38.8%, in contrast to Aβ42 alone (Figure 5a).

[4] = test system: SH-SY5Y cells; assay: Neuroprotection against Aβ42-induced toxicity (MTT reduction); format: cell-based, human; conditions: 1 h pre-incubation + 24 h with Aβ42 1 µM, 4d at 3 µM
Protocol: SH-SY5Y human neuroblastoma cells (ATCC-CRL-2266) were kept in culture using Dulbecco’s Modified Eagle Medium (DMEM) (Gibco-Invitrogen, Life Technologies Ltd., Waltham, MA, USA) containing 10% heat-inactivated fetal bovine serum (FBS), 50 U mL^−1 penicillin and 50 μg mL^−1 streptomycin. Incubation of the cells occurred at 37 °C in 5% CO2. The toxicity of the compounds was tested through cell viability assays, with cells seeded with a density of 0.24 × 10^6 cells mL^−1. DMSO was used to dissolve each tested compound (4a–4d, 5a, 5b), affording stock solutions with concentrations of 25 mM. Aliquots of these solutions were stored at −20 °C. Concentrations from 1 μM to 10 μM were screened in order to select the highest non-toxic concentration of each compound. Consequently, compounds 4a, 4b and 5b were tested at 1 μM final concentration; compounds 4c and 5a were tested at 2 μM final concentration; compound 4d was tested at a final concentration of 3 μM. The DMSO concentrations in the culture media were lower than 0.05% (v/v) and the viability of the SH-SY5Y cells was not altered in a detectable manner. […]
The colorimetric MTT (3-(4,5-dimethylthiazol-2-yl)-2,5-diphenyltetrazolium bromide) reduction assay was used to determine cell viability. […] The absorbance of each well was measured at 570 nm. […]
All data were expressed as means ± SEMs of at least five independent experiments performed in duplicate. […]

T2 sequence (P05067 672-713 limits assumed): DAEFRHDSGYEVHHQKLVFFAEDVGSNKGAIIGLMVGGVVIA
T1 sequence (P05067 672-713 limits assumed): as above

Row | Structure (SMILES) | Appearance of Aβ42 fibrils in TEM images [1] | Aβ42 fibril width [1] | EC50 [2] [mM] | Aβ42 fibril width [3] | Appearance of Aβ42 aggregation in TEM images [3] | Reduction of fibril width vs Aβ42 alone [1] [%] | Neuroprotective effect against Aβ42-induced toxicity (cell viability, MTT) [4]
1 | CCN(C)C(=O)Oc1cccc(CNC(=O)c2ccc3nc(-c4ccccc4O)[nH]c3c2)c1 [Compound 4b, 3-((2-(2-Hydroxyphenyl)-1H-benzo[d]imidazole-6-carboxamido)methyl) Phenyl Ethylmethylcarbamate] | shortest fibrils | 4.1 nm | 0.9 ± 0.1 | 4.8 nm | – | – | –
2 | CCN(C)C(=O)Oc1cccc(NC(=O)c2cccc3[nH]c(-c4ccccc4O)nc23)c1 [Compound 5a, 3-(2-(2-Hydroxyphenyl)-1H-benzo[d]imidazole-4-carboxamido)phenyl Ethylmethylcarbamate] | – | 4.5 nm | – | 4.9 nm and 4.9 ± 0.2 nm | sparser amyloid aggregation | – | –
3 | CCN(C)C(=O)Oc1cccc(CNC(=O)c2cccc3[nH]c(-c4ccccc4O)nc23)c1 [Compound 5b, 3-((2-(2-Hydroxyphenyl)-1H-benzo[d]imidazole-4-carboxamido)methyl) Phenyl Ethylmethylcarbamate] | shortest fibrils | 3.8 nm and 3.8 ± 0.1 nm | – | 4.1 nm | sparser amyloid aggregation | 22.4 | –
4 | CCN(C)C(=O)Oc1cccc(CCNC(=O)c2ccc3nc(-c4ccccc4O)[nH]c3c2)c1 [Compound 4c, 3-(2-(2-(2-Hydroxyphenyl)-1H-benzo[d]imidazole-6-carboxamido)ethyl) Phenylethylmethylcarbamate] | quite elongated fibrils | 4.1 nm | 10 | 4.6 nm | – | – | –
5 | CCN(C)C(=O)Oc1ccc(CCCNC(=O)c2ccc3nc(-c4ccccc4O)[nH]c3c2)cc1 [Compound 4d, 4-(3-(2-(2-Hydroxyphenyl)-1H-benzo[d]imidazole-6-carboxamido)propyl) Phenyl Ethylmethylcarbamate] | quite elongated fibrils | 6.7 nm and 6.7 ± 0.3 nm | – | – | – | – | significantly prevented Aβ-induced cell toxicity; also recorded: best neuroprotective capacities
6 | CCN(C)C(=O)Oc1ccc(CCCNC(=O)c2cccc3[nH]c(-c4ccccc4O)nc23)cc1 [Compound 5d, 4-(3-(2-(2-Hydroxyphenyl)-1H-benzo[d]imidazole-4-carboxamido) Propyl) Phenyl Ethyl(methyl)carbamate] | – | 3.3 nm and 3.3 ± 0.2 nm | – | 3.9 nm | sparser amyloid aggregation | 32.7 | –
7 | CCN(C)C(=O)Oc1cccc(NC(=O)c2ccc3nc(-c4ccccc4O)[nH]c3c2)c1 [Compound 4a, 3-(2-(2-Hydroxyphenyl)-1H-benzo[d]imidazole-6-carboxamido)phenyl Ethylmethylcarbamate] | shortest fibrils | 4.1 nm | – | 4.7 nm | – | – | –
